How the values were obtained:
Type in all cases: ADME
Cytochrome P450 2C19 [1] = target: T1, Cytochrome P450 2C19 (Homo sapiens, UniProt P33261); assay: Inhibition of CYP2C19
Cytochrome P450 2C19 [2] = target: T1, Cytochrome P450 2C19; assay: Activity at recombinant CYP2C19 by Michaelis-Menten method; details: recombinant enzyme
Cytochrome P450 2C9 [3] = target: T2, Cytochrome P450 2C9 (Homo sapiens, UniProt P11712); assay: Activity at recombinant CYP2C9 by Michaelis-Menten method; details: recombinant enzyme
T2 sequence (P11712 whole entry): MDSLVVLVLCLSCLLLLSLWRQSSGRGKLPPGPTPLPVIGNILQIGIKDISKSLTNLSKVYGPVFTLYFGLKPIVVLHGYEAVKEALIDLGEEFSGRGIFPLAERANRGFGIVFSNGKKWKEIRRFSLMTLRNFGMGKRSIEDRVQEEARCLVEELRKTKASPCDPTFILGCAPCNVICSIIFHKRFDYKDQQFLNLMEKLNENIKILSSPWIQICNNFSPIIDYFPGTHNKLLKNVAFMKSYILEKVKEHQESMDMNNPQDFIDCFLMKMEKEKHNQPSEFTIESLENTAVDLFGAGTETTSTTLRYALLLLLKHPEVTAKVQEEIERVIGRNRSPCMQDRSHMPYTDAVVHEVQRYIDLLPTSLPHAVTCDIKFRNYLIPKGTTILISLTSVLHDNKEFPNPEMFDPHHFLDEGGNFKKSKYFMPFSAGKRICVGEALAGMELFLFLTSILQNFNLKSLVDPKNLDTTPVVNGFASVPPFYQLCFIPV

Cytochrome P450 2C9 [4] = target: T2, Cytochrome P450 2C9; assay: Inhibition of CYP2C9 assessed as decrease in catalytic reaction velocity at 200 uM by substrate-inhibition assay
Cytochrome P450 2C19 [5] = target: T1, Cytochrome P450 2C19; assay: Inhibition of CYP2C19 assessed as decrease in catalytic reaction velocity at 100 uM by substrate-inhibition assay

T1 sequence (P33261 whole entry): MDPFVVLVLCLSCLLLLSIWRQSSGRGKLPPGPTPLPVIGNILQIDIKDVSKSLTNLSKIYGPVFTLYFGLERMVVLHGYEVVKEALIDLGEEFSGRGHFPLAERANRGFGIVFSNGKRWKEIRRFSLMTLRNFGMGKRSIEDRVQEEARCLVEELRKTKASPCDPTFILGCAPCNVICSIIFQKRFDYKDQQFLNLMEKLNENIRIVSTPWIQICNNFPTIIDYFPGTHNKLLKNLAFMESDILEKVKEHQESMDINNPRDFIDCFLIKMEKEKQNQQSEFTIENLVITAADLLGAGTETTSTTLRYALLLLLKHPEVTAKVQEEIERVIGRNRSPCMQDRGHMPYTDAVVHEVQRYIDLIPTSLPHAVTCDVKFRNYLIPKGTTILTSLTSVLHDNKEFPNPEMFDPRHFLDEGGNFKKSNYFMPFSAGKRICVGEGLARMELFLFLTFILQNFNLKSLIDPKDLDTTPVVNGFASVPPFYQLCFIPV

SMILES | Ki (Cytochrome P450 2C19 [1]) | Vmax (Cytochrome P450 2C19 [2]) | Vmax (Cytochrome P450 2C9 [3]) | inhibition (INH) (Cytochrome P450 2C9 [4]) | inhibition (INH) (Cytochrome P450 2C19 [5])
CCC1(c2ccccc2)C(=O)NC(=O)N(Cc2ccccc2)C1=O (configuration not stated) | 79 µM |  |  |  | 
Cc1ccc(S(=O)(=O)NC(=O)NN2C[C@@H]3CC[C@@H](O)[C@@H]3C2)cc1 |  | 14.9 pmol/min | 0.6 pmol/min |  | 
Cc1ccc(S(=O)(=O)NC(=O)NN2CC3CCCC3C2)cc1 (configuration not stated) [GLICLAZIDE] |  |  |  | Not Active | Not Active
O=C(NN1C[C@H]2CCC[C@H]2C1)NS(=O)(=O)c1ccc(CO)cc1 [METHYLHYDROXYLGLICLAZIDE] |  | 12.1 pmol/min | 0.6 pmol/min |  | 

Source: ChEMBL document CHEMBL1153865, “The metabolism of CYP2C9 and CYP2C19 for gliclazide by homology modeling and docking study” (Eur J Med Chem, 2009)
